Patent US7288558B2, “Pharmaceutical composition for treatment for urinary diseases comprising LPA receptor regulator” (Ono Pharmaceuticals Co., Ltd., priority 2001, dated 2007)

Key:
urethra [1] = assay: Measurement of urethral pressure by drugs in pithed male rats, i.v.; assay type: in vivo, rat; parameters: key to urethral pressure: ↑: increase; (—): no effect; settings: for urethral pressure / urethral pressure (increase): male pithed rats; for urethral pressure: class symbol; for intraurethral pressure: 1 mg/kg i.v.
Procedure: Male CD(SD)IGS rats (Charles River Japan Inc., 8-9 week-old in use) were anesthetized by intraperitoneal administration of sodium pentbarbital (50 mg/kg). After incision of cervical median, broncho cannula and arterial catheter were inserted. The measurement of blood pressure was started via arterial catheter and subsequently a stainless-steel rod was inserted into the spinal column through the orbit and foramen magnum for the destruction of the spinal cord. The broncho cannula was connected to the artificial breathing device for small animals (SN-480-7, Shinano, Tokyo, Japan) immediately and the animals were ventilated artificially with room air in a tidal volume of 6 mL/kg body weight at a rate of 70 breaths/min. After confirming the gentle decrease of blood pressure and stabilization of the blood pressure at the low level indicating a success of destruction of the spinal cord, intravenous catheter was inserted into femoral vein for drug administration. Urinary bladder was exposed by incision of hypogastrium median and urethra was tied off in the vicinity of pubic bone. Urethra catheter was inserted into urethra through dome of urinary bladder and fixed by ligation at the bladder neck. Urethra catheter was connected to the pressure transducer and urethral pressure was measured. Subsequently, urethral pressure was adjusted about 20 mmHg and left for about 1 hour. After it was confirmed stability of urethral pressure, and subsequently 10 μg/kg/0.5 ml phenylephrine was administrated and it was confirmed that urethral pressure increased. Various drugs included 18:3-LPA were estimated 0.5 ml/kg in the same way.

colon and ileum = settings: rats, literature; cited from earlier work
[2] = test system: isolated urethral preparations; assay: Measurement of urethra contraction, isolated female rat urethral preparations (Magnus tube); assay type: cell-based
Excerpt: After sacrificing female CD(SD)IGS rats (Charles River Japan Inc., 8-9 week-old in use) by blowing heads and exsanguinating from jugular vein, urethra under pubis was isolated carefully and soaked in Krebs-Henseleit solution (112 mmol/L NaCl, 5.9 mmol/L KCl, 2.0 mmol/L CaCl2, 1.2 mmol/L MgCl2, 1.2 mmol/L NaH2PO4, 25.0 mmol/L NaHCO3, 11.5 mmol/L glucose) immediately. Urethra part was cut from isolated sample, and was dissected in flat and subsequently was cut parallel to circular muscle. Thus, 2-3 strips of sample that are 3-4 mm long by 2-3 mm wide were made.
(§1) The made samples were suspended in the Magnus tube (volume: 10 mL) filled by Krebs-Henseleit solution (vented by 37±1° C., mixed gas [95% O2+5% CO2]). The samples were added about 0.5 g tension and stabilized for 60 min, and subsequently the contractile activity was recorded on recorder (linearcoder WR3320: GRAPHTEC CORP., thermal pen-writing recorder RJG-4128: Nihon Kohden Ltd) via a pressure amplifier (AP-641G, AP-601G, Nihon Kohden Ltd) from isometric transducer (Force displacement transducer) (FD pick-up TB-611T: Nihon Kohden Ltd).
The contractile reaction of control was given by stimulation of high concentration KCl solution (solution replaced all NaCl with KCl). By the addition of LPA and phenylephrine (comparison compound: α agonist) cumulatively, dose-dependency of urethra contraction was measured. […]

[3] = test system: isolated prostatic preparations; assay: Contractile test of isolated prostate, male rats (Magnus tube); assay type: cell-based; settings: isolated male rat prostate
Excerpt: After sacrificing male CD(SD)IGS rats (Charles River Japan Inc., 8-9 week-old in use) by blowing heads and exsanguinating from jugular vein, prostate was isolated and soaked in iced Krebs-Henseleit solution (112 mmol/L NaCl, 5.9 mmol/L KCl, 2.0 mmol/L CaCl2, 1.2 mmol/L MgCl2, 1.2 mmol/L NaH2PO4, 25.0 mmol/L NaHCO3, 11.5 mmol/L glucose) immediately. Prostate was separated right-and-left part from isolated sample, fatty tissue was removed and longitudinal strips (2 to 3 strips) were isolated from a prostate lobe.
as §1, with “were” for “were added about 0.5 g tension and”, “min and added about 0.5-1 g tension,” for “min,”, “AP-601G:” for “AP-601G,”, “Ltd). 0.01-10 μM phenylephrine was added in Magnus tube. The contraction by 10 μM phenylephrine is the contractile reaction of control. […] After the samples were suspended, it was washed over and over, opportunity. […]” for “Ltd).”

micturition = assay: Cystometry in anesthetized female rats with intravenous infusion of LPA; assay type: in vivo, rat; settings: infusion rate 15 mg/kg/hr/3 mL i.v.
Excerpt: Female CD(Sprague-Dawley)IGS rats (Charles River Japan Inc., 12 to 13 weeks old in use) were anesthetized with an s.c. administration of urethane (1.2 g/kg) and placed in a supine position and the bladder and proximal urethra were exposed through a midline abdominal incision. The ureters were tied with silk suture distally and cut. Bladder was exposed and a polyethylene catheter (JMS cutdown tube, C3) was inserted through the bladder dome and secured with a ligature. The other side of the catheter was connected to a pressure transducer through two T tubes to measure intravesical pressure. Another side of T tubes was connected to an infusion pump for performing cystometrograms (the other side of T tube was connected to a syringe). The carotid artery was cannulated to measure blood pressure and the jugular vein was cannulated to administration of the test compounds. Rats in which the above mentioned operation was performed were placed to 37° C. thermostat plate and citric acid solution (pH4.0) or saline were infused into bladder at the rate of 2.85 mL/hr. After cystometrograms show rhythmic reflex saline was infused via jugular vein at the infusion rate of 3 mL/kg/hr. After an appropriate time 18:3-LPA prepared with 5 mg/mL was infused at the infusion rate of 3 mL/kg/hr. After the 18:3-LPA infusion was stopped saline was infused again. […]

EDG-2 = EDG-2 (Homo sapiens, UniProt Q92633); settings: EDG-2 over-expressed cell, specification of WO01/60819; cited from earlier work
[4] = test system: LPA dependent contraction in rat isolated urethra; assay: Inhibitory activity for LPA dependent contraction in rat isolated urethra; assay type: cell-based; settings: isolated male rat urethra, 10 μM LPA
Excerpt: Male CD(SD)IGS rats (Charles River Japan Inc., 8-9 week-old in use) anesthetized by diethyl ether were sacrificed by taking blood from the descending aorta, and subsequently urethra under pubis was isolated with urinary bladder and vesicular gland carefully and soaked in Krebs-Henseleit solution (112 mmol/L NaCl, 5.9 mmol/L KCl, 2.0 mmol/L CaCl2, 1.2 mmol/L MgCl2, 1.2 mmol/L NaH2PO4, 25.0 mmol/L NaHCO3, 11.5 mmol/L glucose) immediately. Urethra was cut from extracted sample and was dissected on the side of abdominal in flat with scissors for ophthalmic surgery. Thus, the strip of sample that are 3-4 mm long by 2-3 mm wide was made. […] The samples were added about 0.5 g tension and stabilized for 60 min, and subsequently the contractile activity was recorded on recorder (linearcoder WR3320: GRAPHTEC CORP., thermal pen-writing recorder RJG-4128: Nihon Kohden Ltd) via a pressure amplifier (AP-641G, AP-601G, Nihon Kohden Ltd) from Force displacement transducer (FD pick-up TB-611T: Nihon Kohden Ltd). […]
In other words, the isolated urethra was stimulated repeatedly by 10 μM LPA until a constant response was attained. […] Then the urethral contraction was monitored (post value). The inhibitory activity of compound A was calculated as the inhibition (%)={1-(post value)/(pre value)}×100. […]

urethra [5] = assay: Rat urethral pressure in vivo after intravenous compound A; settings: male rats, 3 mg/kg i.v.
Excerpt: Male CD(SD)IGS rats (Charles River Japan Inc., 8-9 week-old in use) were anesthetized by subcutaneous administration of 1.2 g/kg urethane. After incision of cervical median, jugular vein catheter for administration of compound and arterial catheter for measurement of blood pressure were inserted. Subsequently, an incision in the hypogastrium median was made and urethra was tied off in the vicinity of pubic bone. Urethral catheter was inserted into urethra by cutting open dome of urinary bladder and fixed by ligation in of the bladder neck. Another end of urethral catheter was connected to the pressure transducer and urethral pressure was measured. Urethral pressure was adjusted about 20 mmHg and left at rest until it was stabilized (for about 20 minutes). Subsequently, compound A was administrated intravenously and blood pressure and urethral pressure were measured for 20 minutes, and then in order to monitor the base-line value of the intraurethral pressure 1 mL of pentobarbital was intraveniously injected. After the intraurethral pressure was decreased to the prolonged plateau, it was estimated as a base-line value. Compound A was administrated intraveniously (3 mg/kg, 1 mL/kg). Vehicle was confirmed as 10% DMSO-90% rat plasma solution. […]

EDG-2, sequence (Q92633 whole entry): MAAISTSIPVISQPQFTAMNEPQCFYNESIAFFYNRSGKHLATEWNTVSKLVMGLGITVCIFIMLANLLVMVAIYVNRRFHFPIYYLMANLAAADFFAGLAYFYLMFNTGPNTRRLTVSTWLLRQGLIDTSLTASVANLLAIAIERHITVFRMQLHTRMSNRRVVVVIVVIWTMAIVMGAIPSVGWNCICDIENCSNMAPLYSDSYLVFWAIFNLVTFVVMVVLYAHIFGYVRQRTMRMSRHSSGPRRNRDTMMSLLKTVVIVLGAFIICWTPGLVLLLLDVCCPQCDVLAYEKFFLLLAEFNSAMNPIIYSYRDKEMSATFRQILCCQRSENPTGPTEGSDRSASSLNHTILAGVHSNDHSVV

CC/C=C\C/C=C\C/C=C\CCCCCCCC(=O)OC[C@@H](O)COP(=O)([O-])OCC[N+](C)(C)C [LPC (18:3), 1-linolenoyl (18:3)-LPC (lysophosphatidyl choline)]
urethral pressure (urethra [1]; dose 1 mg/kg i.v.): — | intraurethral pressure (urethra [1]; pithed rat, in words): hardly increase

CCCCCCCCCCCCCCCC(=O)OCC(O)COP(=O)(O)O (centres unmarked) [(16:0)-LPA, 1-palmitoyl lysophosphatidic acid]
activity for the contraction of colon and ileum (colon and ileum): also have the activity

CC/C=C\C/C=C\C/C=C\CCCCCCCC(=O)OC[C@@H](O)COP(=O)(O)O [18:3-LPA, 1-Linolenoyl lysophosphatidic acid]
desensitization of urethral contraction [2]: desensitization was not caused | intensity of contraction of urethra compared with phenylephrine ([2]; cumulative addition, FIG. 1): more potent | desensitization of prostate contraction [3]: desensitization was caused | contraction of isolated prostate ([3]; organ bath in vitro, FIG. 2): contracts isolated urethra and prostate | micturition pressure versus infusion of saline (micturition): increased | intercontraction interval versus saline infusion (micturition; FIG. 6): shorter | urethral pressure (increase) (urethra [1]; dose 10 μg/kg i.v.): 3.0 mmHg | urethral pressure (increase) (urethra [1]; dose 100 μg/kg i.v.): 9.0 mmHg | urethral pressure (increase) (urethra [1]; dose 1 mg/kg i.v.): 15.5 mmHg | intraurethral pressure, dose dependency (urethra [1]; pithed rat, intravenous injection, in words): increased the intraurethral pressure in a dose-dependent manner | activity for the contraction of colon and ileum (colon and ileum): most potent activity

CC/C=C\C/C=C\C/C=C\CCCCCCCC(=O)OCC(O)CO (centres unmarked) [1-monolinolenoyl (18:3)-glycerol]
urethral pressure (urethra [1]; dose 1 mg/kg i.v.): — | intraurethral pressure (urethra [1]; pithed rat, in words): hardly increase

CNC[C@H](O)c1cccc(O)c1 [L-phenylephrine]
urethral pressure (increase) (urethra [1]; dose 10 μg/kg i.v.): 7.5 mmHg

COC(=O)CCSCc1ccc(-c2onc(C)c2NC(=O)OC(C)c2ccccc2Cl)cc1 (centres unmarked) [compound A, methyl 3-({4-[4-({[1-(2-chlorophenyl)ethoxy]carbonyl}amino)-3-methyl-5-isoxazolyl]benzyl}sulfanyl)propanoate]
LPA receptor (EDG-2) antagonistic activity (EDG-2): potent EDG-2 antagonistic activity | IC50 ([4]; 0.5 h, 30 min incubation at 37° C., read-out: 50% inhibitory concentration (IC50) for urethral contraction by LPA): 70 nM | inhibition of urethral contraction by LPA ([4]; in words): inhibited the urethral contraction by LPA, dose-dependently | maximal amounts of the decreasing intraurethral pressure, of an absolute value (pressure before injection minus base-line value) (urethra [5]): about 50% | intraurethral pressure (urethra [5]; urethane anesthesia, versus vehicle, FIG. 5): greatly decreased

CCCCC/C=C\C/C=C\CCCCCCCC(=O)OC[C@@H](O)COP(=O)(O)O [(18:2)-LPA, 1-linoleoyl lysophosphatidic acid]
activity for the contraction of colon and ileum (colon and ileum): also have the activity
